Conditions: Liquid

CCCCCCCCCCCCCC[P+](CCCCCC)(CCCCCC)CCCCCC.O=S(=O)([N-]S(=O)(=O)C(F)(F)F)C(F)(F)F
mass density [kg/m3]
Conditions	283.15 K	293.15 K	303.15 K	313.15 K	323.15 K	333.15 K
100 kPa	1077.4	1070	1062.7	1055.4	1048	1040.8
1000 kPa	1077.9	1070.5	1063.3	1056	1048.7	1041.5
2000 kPa	1078.4	1071.2	1063.9	1056.7	1049.3	1042.2
3000 kPa	1079	1071.8	1064.5	1057.3	1050.1	1042.9
4000 kPa	1079.6	1072.3	1065.2	1057.9	1050.7	1043.6
5000 kPa	1080.2	1072.9	1065.8	1058.6	1051.4	1044.4
10000 kPa	1083	1075.9	1068.8	1061.7	1054.7	1047.8
15000 kPa	1085.6	1078.6	1071.8	1064.9	1057.9	1051.2
20000 kPa	1088.3	1081.4	1074.7	1067.8	1061	1054.3
25000 kPa	1090.8	1084	1077.4	1070.7	1064	1057.4
30000 kPa	1093.3	1086.6	1080.1	1073.5	1066.9	1060.4
35000 kPa	1095.6	1089.1	1082.7	1076.2	1069.8	1063.3
40000 kPa	1097.9	1091.5	1085.1	1078.8	1072.4	1066.2
45000 kPa	1100.2	1093.9	1087.7	1081.3	1075.1	1068.9

CCCCCCCCCCCCCC[P+](CCCCCC)(CCCCCC)CCCCCC.CS(=O)(=O)[O-] [trihexyltetradecylphosphonium methanesulfonate]
mass density [kg/m3]
Conditions	283.15 K	293.15 K	303.15 K	313.15 K	323.15 K	333.15 K
100 kPa	938	931.8	925.7	919.6	913.4	907.4
1000 kPa	938.4	932.3	926.2	920.1	914	908.1
2000 kPa	938.9	932.8	926.7	920.7	914.6	908.7
3000 kPa	939.5	933.4	927.3	921.3	915.3	909.3
4000 kPa	940.1	933.9	927.9	921.9	915.9	910
5000 kPa	940.5	934.4	928.4	922.5	916.6	910.6
10000 kPa	943.1	937.1	931.3	925.3	919.5	913.7
15000 kPa	945.6	939.7	934	928.1	922.3	916.7
20000 kPa	948	942.2	936.6	930.8	925.2	919.6
25000 kPa	950.3	944.6	939	933.5	927.9	922.3
30000 kPa	952.7	947.1	941.5	935.9	930.5	925
35000 kPa	954.9	949.4	943.8	938.4	933.1	927.7
40000 kPa	957.1	951.6	946.2	940.8	935.5	930.2
45000 kPa	959.3	953.9	948.5	943.3	938.1	932.7

CCCCCCCCCCCCCC[P+](CCCCCC)(CCCCCC)CCCCCC.N#C[N-]C#N [tetradecyl(trihexyl)phosphonium dicyanamide]
mass density [kg/m3]
Conditions	283.15 K	293.15 K	303.15 K	313.15 K	323.15 K	333.15 K
100 kPa	907.5	901.7	895.9	890.2	884.3	878.6
1000 kPa	908	902.1	896.4	890.6	884.8	879.2
2000 kPa	908.4	902.6	896.9	891.2	885.4	879.7
3000 kPa	908.9	903.1	897.4	891.6	885.9	880.2
4000 kPa	909.3	903.5	897.9	892.1	886.5	880.8
5000 kPa	909.8	904	898.3	892.7	887	881.3
10000 kPa	912.1	906.3	900.7	895.1	889.5	884
15000 kPa	914.3	908.5	903	897.5	892	886.6
20000 kPa	916.2	910.7	905.3	899.9	894.4	889.1
25000 kPa	918.3	912.8	907.5	902.1	896.7	891.4
30000 kPa	920.3	914.9	909.6	904.3	899	893.9
35000 kPa	922.2	916.9	911.6	906.5	901.4	896.2
40000 kPa	924.2	918.9	913.7	908.5	903.4	898.3
45000 kPa	926.1	920.9	915.7	910.7	905.6	900.5

CCCCCCCCCCCCCC[P+](CCCCCC)(CCCCCC)CCCCCC.[Cl-] [trihexyl(tetradecyl)phosphonium chloride]
mass density [kg/m3]
Conditions	283.15 K	293.15 K	303.15 K	313.15 K	323.15 K	333.15 K
100 kPa	898.4	892.4	886.5	880.6	874.8	868.9
1000 kPa	898.8	892.9	887	881.1	875.3	869.4
2000 kPa	899.3	893.4	887.5	881.7	875.8	870
3000 kPa	899.8	893.9	888	882.2	876.4	870.6
4000 kPa	900.3	894.4	888.5	882.7	876.9	871.1
5000 kPa	900.7	894.9	889.1	883.3	877.6	871.8
10000 kPa	903.1	897.3	891.5	885.9	880.2	874.5
15000 kPa	905.3	899.6	894	888.4	882.8	877.3
20000 kPa	907.5	901.8	896.3	890.8	885.3	879.9
25000 kPa	909.6	904	898.6	893.2	887.8	882.5
30000 kPa	911.7	906.3	900.8	895.5	890.1	884.9
35000 kPa	913.7	908.3	903	897.7	892.6	887.3
40000 kPa	915.7	910.3	905.1	899.9	894.8	889.6
45000 kPa	917.6	912.4	907.2	902.1	897	892

CCCCCCCCCCCCCC[P+](CCCCCC)(CCCCCC)CCCCCC.[Br-] [tetradecyltrihexylphosphonium bromide]
mass density [kg/m3]
Conditions	283.15 K	293.15 K	303.15 K	313.15 K	323.15 K	333.15 K
100 kPa	962.7	956.5	950.3	944.1	937.8	931.7
1000 kPa	963.2	957.1	950.9	944.6	938.4	932.3
2000 kPa	963.7	957.6	951.4	945.3	939	933
3000 kPa	964.2	958.1	952	945.8	939.7	933.6
4000 kPa	964.8	958.7	952.6	946.4	940.3	934.2
5000 kPa	965.3	959.2	953.1	947	941	934.9
10000 kPa	967.9	961.9	955.9	949.8	943.9	938
15000 kPa	970.3	964.5	958.6	952.7	946.8	941
20000 kPa	972.8	967	961.2	955.4	949.7	943.9
25000 kPa	975.3	969.3	963.8	958	952.4	946.8
30000 kPa	977.6	971.8	966.3	960.6	955.1	949.6
35000 kPa	979.8	974.2	968.7	963.2	957.7	952.3
40000 kPa	982	976.5	971	965.5	960.2	954.9
45000 kPa	984.2	978.8	973.4	967.9	962.7	957.3
